For series [1] the following is noted: advanced cancer patients on chemotherapy, versus those not receiving it; cited from earlier work.
For series [2] the following is noted: children and adolescents 6-19 years of age; cited from earlier work.
Series [3] in a line: Example II: prospective dose-ranging study of dronabinol in patients with symptomatic HIV infection, weight change and side effects. Type of series: in vivo, human. Here is the method:
In a prospective, dose-ranging study, 23 patients with symptomatic HIV infection were treated with dronabinol at a dose of 2.5 mg twice daily to 5.0 mg three times daily. Of these, 13 completed approximately one month on therapy.
At a dose which appears optimal, seven of eight patients completed one month treatment. […] Most of those patients who did experience side effects found them tolerable. […] The median rate of weight loss prior to therapy was 1.62 kg/mo; on therapy, the median weight gain was 1.56 kg/mo. The median improvement in the rate of weight change was 3.06 kg/mo, or approximately 1.5 lbs/wk.

The conditions of series [4]: oral; cancer chemotherapy patients; crossover; cited from earlier work.
For series [5] the following is noted: cancer patients, open study; cited from earlier work.
For series [6] the following is noted: cancer chemotherapy patients; compared with prochlorperazine; cited from earlier work.
The nature of series [7]: Example I: ten symptomatic HIV patients treated with delta-9-tetrahydrocannabinol as dronabinol, weight change. Type of series: in vivo, human. Here is the method: Soft gelatin capsules were filled with delta-9-tetrahydrocannabinol in sesame oil (dronabinol). Capsules were filled with 2.5 mg delta-9-tetrahydrocannabinol per capsule or 5 mg delta-9-tetrahydrocannabinol per capsule.
Ten symptomatic HIV patients were treated with delta-9-tetrahydrocannabinol. […] The infectious complications which they had represent the spectrum of those usually seen in a symptomatic HIV-infected population.
Most of the patients had received or were on antiviral therapy, primarily zidovudine (azidothymidine). Two had previously received and one was receiving megesterol acetate as well. Patients received delta-9-tetrahydrocannabinol as dronabinol (delta-9-tetrahydrocannabinol in sesame oil in soft gelatin capsules), usually at a dose of 2.5 mg, for one to five months. Treatment continued for most of the patients at the time of this analysis. The dose varied. The patients were instructed to take medication up to four times daily as needed; many took it somewhat less often.
Initially, patients were losing a median of 0.93 kg/mo. On therapy, they gained 0.54 kg/mo. The median difference on versus pre-therapy was 1.92 kg/mo.

Take `CCCCCc1cc(O)c2c(c1)OC(C)(C)[C@@H]1CCC(C)=C[C@@H]21` [delta-9-tetrahydrocannabinol]: the weight maintenance entry in series [1] is listed as “maintained their weight better”. In addition, the appetite stimulating effect result in series [2] was “Results suggestive of an appetite stimulating effect”. Besides, the “number of patients who gained weight” value in series [3] (all doses, 2.5 mg twice daily to 5.0 mg three times daily, of 13 patients completing about one month on therapy) is recorded as “seven gained weight”; in series [3] (dose which appears optimal, of seven patients completing one month), “five of the seven patients gained weight”; in series [7] (of ten symptomatic HIV patients), “Seven patients gained weight”. The side effects result in series [3] (dose which appears optimal) was “most patients did not experience side effects”. The “median improvement in the rate of weight change” value is given as “approximately 1.5 lbs/wk” in series [3] (dose which appears optimal, converted from kg/mo) and 3.06 kg/mo in series [3] (dose which appears optimal, on therapy versus prior to therapy). Also, the “median weight gain on therapy” value stood at 1.56 kg/mo in series [3] (dose which appears optimal, pre-therapy median loss 1.62 kg/mo) and 0.54 kg/mo in series [7] (ten symptomatic HIV patients, usually 2.5 mg oral, up to four times daily as needed, one to five months, pre-therapy median loss 0.93 kg/mo). In addition, the “subjects reporting an increased food intake” value in series [4] is recorded as 50%. Besides, in series [5], the appetite result was “appetite increases”. Besides, the “rate of weight loss” value in series [5] was “lessening of the rate of weight loss”. For the same compound, in series [6], the reported hunger result is listed as “reported feeling more hungry than patients on prochlorperazine”. For the same compound, in series [7] (of ten symptomatic HIV patients, besides those who gained weight), the “number of patients with a decrease in weight loss” value is “two others had a decrease in weight loss”. Further, in series [7] (ten symptomatic HIV patients, usually 2.5 mg oral, one to five months), the “median difference in rate of weight change, on versus pre-therapy” value came out at 1.92 kg/mo.

The values above are taken from patent US6703418B2, “Appetite stimulation and induction of weight gain in patients suffering from symptomatic HIV infection” (Unimed Pharmaceuticals, Inc., priority 1991, dated 2004).
